From ChEMBL document CHEMBL4507265 (2021)

Key:
[1] = molecular target: Calcium/calmodulin-dependent protein kinase kinase 1 (Homo sapiens) (UniProt Q8N5S9); conditions: Compound concentration 1000.0 nM
[2] = molecular target: Death-associated protein kinase 3 (Homo sapiens) (UniProt O43293); conditions: Compound concentration 1000.0 nM
[3] = molecular target: Serine/threonine-protein kinase Nek6 (Homo sapiens) (UniProt Q9HC98); conditions: Compound concentration 1000.0 nM
[4] = molecular target: Serine/threonine-protein kinase SBK1 (Homo sapiens) (UniProt Q52WX2); conditions: Compound concentration 1000.0 nM
[5] = molecular target: Tyrosine-protein kinase JAK1 (Homo sapiens) (UniProt P23458); conditions: Compound concentration 1000.0 nM
[6] = molecular target: SRSF protein kinase 3 (Homo sapiens) (UniProt Q9UPE1); conditions: Compound concentration 1000.0 nM
[7] = molecular target: 5-hydroxytryptamine receptor 3A (Homo sapiens) (UniProt P46098); conditions: Compound concentration 10.0 uM
[8] = molecular target: ALK tyrosine kinase receptor (Homo sapiens) (UniProt Q9UM73); conditions: Compound concentration 1000.0 nM
[9] = test system: Mast/stem cell growth factor receptor Kit (Homo sapiens), P10721 [V559D,T670I]; conditions: Compound concentration 1000.0 nM
[10] = molecular target: Activin receptor type-1 (Homo sapiens) (UniProt Q04771); conditions: Compound concentration 1000.0 nM
[11] = molecular target: Microtubule-associated serine/threonine-protein kinase 1 (Homo sapiens) (UniProt Q9Y2H9); conditions: Compound concentration 1000.0 nM
[12] = molecular target: 5-hydroxytryptamine receptor 2B (Homo sapiens) (UniProt P41595); conditions: Compound concentration 10.0 uM
[13] = molecular target: Ephrin type-B receptor 4 (Homo sapiens) (UniProt P54760); conditions: Compound concentration 1000.0 nM
[14] = molecular target: Phosphatidylinositol 4-phosphate 5-kinase type-1 alpha (Homo sapiens) (UniProt Q99755); conditions: Compound concentration 1000.0 nM
[15] = molecular target: Ribosomal protein S6 kinase beta-1 (Homo sapiens) (UniProt P23443); conditions: Compound concentration 1000.0 nM
[16] = molecular target: Mitogen-activated protein kinase kinase kinase 13 (Homo sapiens) (UniProt O43283); conditions: Compound concentration 1000.0 nM
[17] = test system: Epidermal growth factor receptor (Homo sapiens), P00533 [G719C]; conditions: Compound concentration 1000.0 nM
[18] = molecular target: Fibroblast growth factor receptor 4 (Homo sapiens) (UniProt P22455); conditions: Compound concentration 1000.0 nM
[19] = molecular target: Atypical kinase COQ8B, mitochondrial (Homo sapiens) (UniProt Q96D53); conditions: Compound concentration 1000.0 nM
[20] = molecular target: Receptor-interacting serine/threonine-protein kinase 1 (Homo sapiens) (UniProt Q13546); conditions: Compound concentration 1000.0 nM
[21] = molecular target: MAP/microtubule affinity-regulating kinase 4 (Homo sapiens) (UniProt Q96L34); conditions: Compound concentration 1000.0 nM
[22] = molecular target: Serine/threonine-protein kinase pim-3 (Homo sapiens) (UniProt Q86V86); conditions: Compound concentration 1000.0 nM
[23] = test system: Epidermal growth factor receptor (Homo sapiens), P00533 [UNDEFINED MUTATION]; conditions: Compound concentration 1000.0 nM
[24] = molecular target: Ribosomal protein S6 kinase alpha-5 (Homo sapiens) (UniProt O75582); conditions: Compound concentration 1000.0 nM
[25] = molecular target: Serine/threonine-protein kinase PknB (Mycobacterium tuberculosis) (UniProt P9WI81); conditions: Compound concentration 1000.0 nM
[26] = molecular target: Interleukin-1 receptor-associated kinase 1 (Homo sapiens) (UniProt P51617); conditions: Compound concentration 1000.0 nM
[27] = molecular target: Calcium/calmodulin-dependent protein kinase type II subunit gamma (Homo sapiens) (UniProt Q13555); conditions: Compound concentration 1000.0 nM
[28] = molecular target: Testis-specific serine/threonine-protein kinase 3 (Homo sapiens) (UniProt Q96PN8); conditions: Compound concentration 1000.0 nM
[29] = molecular target: 5-hydroxytryptamine receptor 2A (Homo sapiens) (UniProt P28223); conditions: Compound concentration 10.0 uM
[30] = molecular target: Inhibitor of nuclear factor kappa-B kinase subunit beta (Homo sapiens) (UniProt O14920); conditions: Compound concentration 1000.0 nM
[31] = molecular target: Angiopoietin-1 receptor (Homo sapiens) (UniProt Q02763); conditions: Compound concentration 1000.0 nM
[32] = molecular target: MAP kinase-activated protein kinase 5 (Homo sapiens) (UniProt Q8IW41); conditions: Compound concentration 1000.0 nM
[33] = molecular target: Serine/threonine-protein kinase D1 (Homo sapiens) (UniProt Q15139); conditions: Compound concentration 1000.0 nM
[34] = molecular target: Mitogen-activated protein kinase 13 (Homo sapiens) (UniProt O15264); conditions: Compound concentration 1000.0 nM
[35] = molecular target: Sigma intracellular receptor 2 (Homo sapiens, UniProt Q5BJF2); assay: GPCRScan assay: inhibition of Sigma 2; parameters: radioligand conc. used [nm] 5.0, parental cells HEKT
[36] = molecular target: Vascular endothelial growth factor receptor 3 (Homo sapiens) (UniProt P35916); conditions: Compound concentration 1000.0 nM
[37] = molecular target: Transient receptor potential cation channel subfamily M member 6 (Homo sapiens) (UniProt Q9BX84); conditions: Compound concentration 1000.0 nM
[38] = molecular target: Casein kinase II subunit alpha (Homo sapiens) (UniProt P68400); conditions: Compound concentration 1000.0 nM
[39] = molecular target: Tyrosine-protein kinase receptor TYRO3 (Homo sapiens) (UniProt Q06418); conditions: Compound concentration 1000.0 nM
[40] = molecular target: Macrophage colony-stimulating factor 1 receptor (Homo sapiens) (UniProt P07333); conditions: Compound concentration 1000.0 nM
[41] = molecular target: Testis-specific serine/threonine-protein kinase 1 (Homo sapiens) (UniProt Q9BXA7); conditions: Compound concentration 1000.0 nM
[42] = molecular target: Rho-associated protein kinase 1 (Homo sapiens) (UniProt Q13464); conditions: Compound concentration 1000.0 nM
[43] = molecular target: cAMP-dependent protein kinase catalytic subunit PRKX (Homo sapiens) (UniProt P51817); conditions: Compound concentration 1000.0 nM
[44] = molecular target: Fibroblast growth factor receptor 3 (Homo sapiens) (UniProt P22607); conditions: Compound concentration 1000.0 nM
[45] = molecular target: Bone morphogenetic protein receptor type-2 (Homo sapiens) (UniProt Q13873); conditions: Compound concentration 1000.0 nM

Sequence of Sigma intracellular receptor 2 (Q5BJF2 whole entry): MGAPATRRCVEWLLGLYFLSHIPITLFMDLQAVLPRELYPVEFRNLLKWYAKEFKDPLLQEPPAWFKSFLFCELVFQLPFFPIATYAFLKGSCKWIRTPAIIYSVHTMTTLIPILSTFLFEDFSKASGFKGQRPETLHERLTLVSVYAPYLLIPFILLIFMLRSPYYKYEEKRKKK
Sequence of Receptor-interacting serine/threonine-protein kinase 1 (Homo sapiens) (Q13546 whole entry): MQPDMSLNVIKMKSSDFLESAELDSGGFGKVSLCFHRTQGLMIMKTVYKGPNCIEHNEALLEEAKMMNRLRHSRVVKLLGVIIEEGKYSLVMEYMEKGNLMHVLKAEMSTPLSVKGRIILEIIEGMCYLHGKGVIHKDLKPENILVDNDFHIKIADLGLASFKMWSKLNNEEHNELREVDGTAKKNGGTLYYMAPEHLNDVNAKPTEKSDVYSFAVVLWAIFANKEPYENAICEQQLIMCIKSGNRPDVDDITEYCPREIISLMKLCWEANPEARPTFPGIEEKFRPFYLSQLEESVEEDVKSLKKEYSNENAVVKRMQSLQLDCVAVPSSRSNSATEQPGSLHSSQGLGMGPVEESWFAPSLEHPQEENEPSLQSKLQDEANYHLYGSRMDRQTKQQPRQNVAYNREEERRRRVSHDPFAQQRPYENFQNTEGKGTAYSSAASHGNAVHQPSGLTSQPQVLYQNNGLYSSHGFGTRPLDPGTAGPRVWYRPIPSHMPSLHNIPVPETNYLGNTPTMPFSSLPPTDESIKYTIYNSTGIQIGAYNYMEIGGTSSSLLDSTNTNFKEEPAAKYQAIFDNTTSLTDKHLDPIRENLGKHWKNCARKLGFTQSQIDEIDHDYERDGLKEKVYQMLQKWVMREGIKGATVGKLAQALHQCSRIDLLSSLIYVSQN
Sequence of Serine/threonine-protein kinase D1 (Homo sapiens) (Q15139 whole entry): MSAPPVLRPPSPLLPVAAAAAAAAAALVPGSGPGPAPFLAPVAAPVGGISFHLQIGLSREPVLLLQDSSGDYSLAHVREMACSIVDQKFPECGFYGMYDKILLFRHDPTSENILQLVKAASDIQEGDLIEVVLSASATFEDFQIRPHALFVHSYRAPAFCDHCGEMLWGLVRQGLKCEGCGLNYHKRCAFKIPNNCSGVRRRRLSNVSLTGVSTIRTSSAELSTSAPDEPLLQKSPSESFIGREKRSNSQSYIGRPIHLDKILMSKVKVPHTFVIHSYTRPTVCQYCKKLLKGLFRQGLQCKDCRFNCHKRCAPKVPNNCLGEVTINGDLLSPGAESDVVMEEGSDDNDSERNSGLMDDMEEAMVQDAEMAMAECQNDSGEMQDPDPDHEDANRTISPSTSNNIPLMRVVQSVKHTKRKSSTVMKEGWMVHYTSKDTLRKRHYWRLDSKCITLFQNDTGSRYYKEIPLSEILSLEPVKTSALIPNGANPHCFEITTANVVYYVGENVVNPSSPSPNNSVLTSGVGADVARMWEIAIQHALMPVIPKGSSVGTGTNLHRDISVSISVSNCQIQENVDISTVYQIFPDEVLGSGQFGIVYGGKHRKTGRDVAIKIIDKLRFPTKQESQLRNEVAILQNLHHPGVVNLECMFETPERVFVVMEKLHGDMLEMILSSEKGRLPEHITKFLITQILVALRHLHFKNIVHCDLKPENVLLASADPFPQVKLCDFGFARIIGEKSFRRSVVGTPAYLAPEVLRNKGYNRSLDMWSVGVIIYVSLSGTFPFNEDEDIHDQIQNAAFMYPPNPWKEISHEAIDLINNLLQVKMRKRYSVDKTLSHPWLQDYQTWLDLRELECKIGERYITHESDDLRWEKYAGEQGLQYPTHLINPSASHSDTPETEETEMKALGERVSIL
Sequence of 5-hydroxytryptamine receptor 2A (Homo sapiens) (P28223 whole entry): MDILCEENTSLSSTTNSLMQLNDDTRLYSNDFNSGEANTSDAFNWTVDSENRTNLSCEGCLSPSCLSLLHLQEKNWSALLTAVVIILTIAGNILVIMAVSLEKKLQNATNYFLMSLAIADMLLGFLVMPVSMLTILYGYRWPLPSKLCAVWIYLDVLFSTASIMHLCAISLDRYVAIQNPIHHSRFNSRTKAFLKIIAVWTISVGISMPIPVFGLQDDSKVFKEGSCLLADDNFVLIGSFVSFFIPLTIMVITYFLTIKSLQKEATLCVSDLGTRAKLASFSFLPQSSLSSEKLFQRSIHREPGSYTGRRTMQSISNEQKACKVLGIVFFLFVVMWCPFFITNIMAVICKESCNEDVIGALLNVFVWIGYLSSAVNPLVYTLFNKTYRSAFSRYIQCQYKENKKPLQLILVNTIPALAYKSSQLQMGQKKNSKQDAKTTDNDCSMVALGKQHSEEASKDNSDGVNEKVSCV
Sequence of MAP kinase-activated protein kinase 5 (Homo sapiens) (Q8IW41 whole entry): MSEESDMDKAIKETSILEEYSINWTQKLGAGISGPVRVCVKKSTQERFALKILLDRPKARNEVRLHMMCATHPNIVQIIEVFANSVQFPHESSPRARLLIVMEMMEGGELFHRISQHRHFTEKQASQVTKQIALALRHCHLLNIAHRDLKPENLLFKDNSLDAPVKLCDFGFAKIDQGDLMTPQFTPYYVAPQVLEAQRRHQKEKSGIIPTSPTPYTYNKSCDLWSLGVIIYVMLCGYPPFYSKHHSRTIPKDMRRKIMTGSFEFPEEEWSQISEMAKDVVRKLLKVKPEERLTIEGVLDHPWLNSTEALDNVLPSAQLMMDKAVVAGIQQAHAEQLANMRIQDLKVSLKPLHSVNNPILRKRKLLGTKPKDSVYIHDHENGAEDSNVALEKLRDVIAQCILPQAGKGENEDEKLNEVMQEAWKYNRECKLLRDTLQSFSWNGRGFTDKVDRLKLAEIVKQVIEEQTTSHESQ
Sequence of Inhibitor of nuclear factor kappa-B kinase subunit beta (Homo sapiens) (O14920 whole entry): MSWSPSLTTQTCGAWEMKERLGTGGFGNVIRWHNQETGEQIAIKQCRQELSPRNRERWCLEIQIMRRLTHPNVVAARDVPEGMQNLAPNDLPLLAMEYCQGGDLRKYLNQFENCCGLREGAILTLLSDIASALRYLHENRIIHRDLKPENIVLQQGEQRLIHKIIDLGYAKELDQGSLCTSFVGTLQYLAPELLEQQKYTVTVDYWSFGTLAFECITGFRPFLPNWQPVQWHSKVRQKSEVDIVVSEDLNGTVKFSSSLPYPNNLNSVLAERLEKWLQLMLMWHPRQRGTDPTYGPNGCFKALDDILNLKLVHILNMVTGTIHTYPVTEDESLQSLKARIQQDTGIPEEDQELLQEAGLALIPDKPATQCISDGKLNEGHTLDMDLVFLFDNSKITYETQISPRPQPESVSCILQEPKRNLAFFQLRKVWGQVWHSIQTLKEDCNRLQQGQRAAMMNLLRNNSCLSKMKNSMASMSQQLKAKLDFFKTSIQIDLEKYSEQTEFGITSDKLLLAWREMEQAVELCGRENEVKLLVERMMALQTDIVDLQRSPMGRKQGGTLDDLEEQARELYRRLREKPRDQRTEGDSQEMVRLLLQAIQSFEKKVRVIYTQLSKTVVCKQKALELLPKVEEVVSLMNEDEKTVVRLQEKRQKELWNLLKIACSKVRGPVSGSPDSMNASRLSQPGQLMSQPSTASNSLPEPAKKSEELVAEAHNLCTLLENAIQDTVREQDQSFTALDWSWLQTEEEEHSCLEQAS
Sequence of MAP/microtubule affinity-regulating kinase 4 (Homo sapiens) (Q96L34 whole entry): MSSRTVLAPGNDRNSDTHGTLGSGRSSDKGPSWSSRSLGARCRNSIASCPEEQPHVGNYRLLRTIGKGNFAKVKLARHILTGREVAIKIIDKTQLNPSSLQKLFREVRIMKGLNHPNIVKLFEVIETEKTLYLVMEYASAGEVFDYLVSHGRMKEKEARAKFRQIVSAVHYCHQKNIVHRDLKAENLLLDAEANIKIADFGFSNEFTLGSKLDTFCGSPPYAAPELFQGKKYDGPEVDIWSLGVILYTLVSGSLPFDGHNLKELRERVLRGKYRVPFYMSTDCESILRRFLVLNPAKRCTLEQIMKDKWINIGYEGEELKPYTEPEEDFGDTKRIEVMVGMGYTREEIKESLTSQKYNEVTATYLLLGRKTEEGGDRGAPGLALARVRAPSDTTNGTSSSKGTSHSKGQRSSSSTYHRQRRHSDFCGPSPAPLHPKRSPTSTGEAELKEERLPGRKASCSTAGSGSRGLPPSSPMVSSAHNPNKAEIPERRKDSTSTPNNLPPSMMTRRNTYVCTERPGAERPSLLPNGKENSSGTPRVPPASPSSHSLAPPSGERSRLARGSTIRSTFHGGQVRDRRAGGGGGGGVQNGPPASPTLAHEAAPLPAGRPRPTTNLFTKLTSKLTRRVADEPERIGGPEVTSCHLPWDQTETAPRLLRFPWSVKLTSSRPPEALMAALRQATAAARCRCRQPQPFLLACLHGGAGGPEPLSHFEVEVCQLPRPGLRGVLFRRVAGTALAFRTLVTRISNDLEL
Sequence of SRSF protein kinase 3 (Homo sapiens) (Q9UPE1 whole entry): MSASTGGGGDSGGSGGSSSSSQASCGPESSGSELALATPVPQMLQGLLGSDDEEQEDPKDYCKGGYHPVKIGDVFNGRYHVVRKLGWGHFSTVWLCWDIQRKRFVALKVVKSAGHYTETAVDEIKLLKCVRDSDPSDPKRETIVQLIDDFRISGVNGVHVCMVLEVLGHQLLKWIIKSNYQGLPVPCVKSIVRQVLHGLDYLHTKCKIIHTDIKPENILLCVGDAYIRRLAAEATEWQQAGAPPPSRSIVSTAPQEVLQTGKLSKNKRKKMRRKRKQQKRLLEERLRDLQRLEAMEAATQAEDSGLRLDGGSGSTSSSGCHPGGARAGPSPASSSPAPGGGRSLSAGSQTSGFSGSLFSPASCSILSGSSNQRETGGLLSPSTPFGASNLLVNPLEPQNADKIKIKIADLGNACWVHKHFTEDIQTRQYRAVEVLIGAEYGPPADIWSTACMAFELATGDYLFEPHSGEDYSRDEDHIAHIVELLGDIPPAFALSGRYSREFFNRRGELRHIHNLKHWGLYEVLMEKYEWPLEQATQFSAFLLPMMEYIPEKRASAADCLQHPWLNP

## NS(=O)(=O)c1cc(NC(=O)C2(c3ccccc3Cl)CC2)ccc1Oc1cccc(Cl)c1 [BAY-207]
[1]
  residual activity: 100%
[2]
  residual activity: 100%
[3]
  residual activity: 81%
[4]
  residual activity: 100%
[5]
  residual activity: 76%
[6]
  residual activity: 80%
[7]
  inhibition: 3.19%
[8]
  residual activity: 85%
[9]
  residual activity: 85%
[10]
  residual activity: 100%
[11]
  residual activity: 100%
[12]
  inhibition: 21.1%
[13]
  residual activity: 57%
[14]
  residual activity: 100%
[15]
  residual activity: 81%
[16]
  residual activity: 100%
[17]
  residual activity: 90%
[18]
  residual activity: 100%
[19]
  residual activity: 63%
[20]
  residual activity: 93%
[21]
  residual activity: 82%
[22]
  residual activity: 88%
[23]
  residual activity: 46%
[24]
  residual activity: 90%
[25]
  residual activity: 90%
[26]
  residual activity: 79%
[27]
  residual activity: 93%
[28]
  residual activity: 100%
[29]
  inhibition: 11.3%
[30]
  residual activity: 70%
[31]
  residual activity: 69%
[32]
  residual activity: 89%
[33]
  residual activity: 65%
[34]
  residual activity: 88%
[35]; read-out: Ki
  Ki: 1.94 µM
[36]
  residual activity: 67%
[37]
  residual activity: 95%
[38]
  residual activity: 100%
[39]
  residual activity: 100%
[40]
  residual activity: 85%
[41]
  residual activity: 100%
[42]
  residual activity: 100%
[43]
  residual activity: 77%
[44]
  residual activity: 100%
[45]
  residual activity: 100%

## NS(=O)(=O)c1cc(NC(=O)Cc2ccccc2)ccc1Oc1cccc(Cl)c1 [BAY-1797]
[1]
  residual activity: 100%
[2]
  residual activity: 95%
[3]
  residual activity: 98%
[4]
  residual activity: 100%
[5]
  residual activity: 87%
[6]
  residual activity: 100%
[7]
  inhibition: 19.9%
[8]
  residual activity: 100%
[9]
  residual activity: 83%
[10]
  residual activity: 84%
[11]
  residual activity: 85%
[12]
  inhibition: 30.2%
[13]
  residual activity: 98%
[14]
  residual activity: 100%
[15]
  residual activity: 69%
[16]
  residual activity: 73%
[17]
  residual activity: 63%
[18]
  residual activity: 95%
[19]
  residual activity: 100%
[20]
  residual activity: 81%
[21]
  residual activity: 100%
[22]
  residual activity: 96%
[23]
  residual activity: 58%
[24]
  residual activity: 100%
[25]
  residual activity: 89%
[26]
  residual activity: 73%
[27]
  residual activity: 86%
[28]
  residual activity: 87%
[29]
  inhibition: -2.5%
[30]
  residual activity: 91%
[31]
  residual activity: 90%
[32]
  residual activity: 100%
[33]
  residual activity: 96%
[34]
  residual activity: 100%
[35]; read-out: Ki
  Ki: 4.34 µM
[35]; read-out: pKi (converted)
  Ki: 4.17 µM
[36]
  residual activity: 79%
[37]
  residual activity: 84%
[38]
  residual activity: 96%
[39]
  residual activity: 76%
[40]
  residual activity: 87%
[41]
  residual activity: 100%
[42]
  residual activity: 88%
[43]
  residual activity: 91%
[44]
  residual activity: 86%
[45]
  residual activity: 73%
